Several values for one entry are separate records, joined by “and”; a condition that tells them apart may be missing. Equal entries are not always repeated. Structures can show the parent of a compound that is named as a salt.
Assays:
mouse vas deferens = mouse vas deferens test, electrically evoked twitch; type: cell-based; details: concentration causing depression of 50% of the electrically evoked contraction; field stimulation 0.15 Hz, 1 msec., 40 V; 37° C.
Method: In the mouse vas deferens test, single mouse vas deferens from mature mice (Cox, 30-40 g.) are suspended in 3 ml. of modified Kreb's solution aerated with 95% O2 -5% CO2 and maintained at 37° C. The twitch induced by field stimulation (0.15 Hz, 1 msec., 40 V) is recorded on a polygraph via an isometric transducer. The test compound is added to the bath in 20 to 30 μl. aliquots. A dose-response curve is constructed by cumulative addition of appropriate amounts of the compound to the bath. Comparison of relative agonist potency is made on the basis of IC50 values (concentration causing depression of 50% of the electrically evoked contraction).

mouse (Cox Standard) = test: mouse hot plate test (mouse jump); type: in vivo; details: subcutaneous injection, 15 minutes after administration, hot plate 52° C., dose producing analgesia in 50% of mice
Method: In the mouse hot plate test, an upright acrylic cylinder comprising, as its base, a hot plate surface which is maintained at 52° C. is used. A mouse (Cox Standard) is given, by subcutaneous injection, a predetermined amount of test compound dissolved or suspended in a suitable carrier, and, 15 minutes after administration of the test compound, the mouse is placed on the hot plate surface. The latency in seconds until the mouse jumps from the hot plate surface is measured. […] This must occur in a dose range which produces no motor incoordination or incapacitation. The following Table records ED50 results obtained from this test. By the term "ED50 " is meant that dose which produces analgesia in 50% of the mice tested. Analgesia is defined as a response latency in the presence of test compound that is equal to or greater than the control response latency plus two standard deviations. The percent analgesia data are converted to probits, and the ED50 is calculated by regression analysis of the dose-response data. Each dose response curve must have at least four points, and each point is determined using data from a minimum of ten treated mice and ten control mice.

mice = details: cited from earlier work; for analgesic activity upon intracerebroventricular administration: mice, intracerebroventricularly, Buscher et al., Nature, 261, 423 (1976); for analgesic activity when administered parenterally: parenteral administration

| Compound | IC50 (mouse vas deferens) [nM] | Mouse Jump ED50 (mouse (Cox Standard)) [mg/kg] | analgesic activity upon intracerebroventricular administration (mice) | analgesic activity when administered parenterally (mice) | Mouse Jump ED50 (mouse (Cox Standard); Diformate Salt) |
| --- | --- | --- | --- | --- | --- |
| CSCC[C@@H](C(N)=O)N(C)C(=O)[C@H](Cc1ccccc1)NC(=O)CNC(=O)[C@@H](C)NC(=O)[C@@H](N)Cc1ccc(O)cc1 [H--LTyr--DAla--Gly--LPhe--L(N--Me)Met--NH2] | 12.2 | 0.363 | – | – | – |
| CC(=O)O.CC(=O)O.C[C@@H](NC(=O)[C@@H](N)Cc1ccc(O)cc1)C(=O)NCC(=O)N[C@@H](Cc1ccccc1)C(=O)NCCCCNC(=O)[C@H](Cc1ccccc1)NC(=O)CNC(=O)[C@@H](C)NC(=O)[C@@H](N)Cc1ccc(O)cc1 [Example 1, N,N'-1,4-Butanediylbis-[L-tyrosyl-D-alanyl-glycyl-L-phenylalanylamide], Diacetate Salt] | 2.83 | 0.370 | – | – | – |
| C[C@@H](NC(=O)[C@@H](N)Cc1ccc(O)cc1)C(=O)NCC(=O)N[C@@H](Cc1ccccc1)C(=O)NCCCCCCCCNC(=O)[C@H](Cc1ccccc1)NC(=O)CNC(=O)[C@@H](C)NC(=O)[C@@H](N)Cc1ccc(O)cc1 [Example 2, N,N'-1,8-Octanediylbis-[L-tyrosyl-D-alanyl-glycyl-L-phenylalanylamide], Diacetate Salt] | 67 | > 30 | – | – | – |
| H-Tyr-Gly-Gly-Phe-Leu-OH. [leucine enkephalin] | – | – | exhibit analgesic activity | practically devoid of any useful analgesic activity | – |
| C[C@@H](NC(=O)[C@@H](N)Cc1ccc(O)cc1)C(=O)NCC(=O)N[C@@H](Cc1ccccc1)C(N)=O [H--LTyr--DAla--Gly--LPhe--NH2] | 189 | 0.85 | – | – | – |
| N,N'-1,4-Butanediylbis-[L-tyrosyl-D-alanyl-glycyl-L-phenylalanyl-L-(N^α -methyl)methioninamide], Diformate Salt [Example 4] | – | – | – | – | 5.5 mg/kg and 9.85 mg/kg |
| H-Tyr-Gly-Gly-Phe-Met-OH [methionine enkephalin] | – | – | exhibit analgesic activity | practically devoid of any useful analgesic activity | – |
